Results from patent US20260108527A1, “POLO LIKE KINASE 4 INHIBITORS” (ORIC Pharmaceuticals, Inc., priority 2022, published 2026).

How the values were obtained:
[1] = target: T1, human recombinant Aurora B (Homo sapiens, UniProt Q96GD4); test: Aurora B Kinase Biochemical Assay (ADP-Glo); conditions: selectivity ratio; Aurora B 10 nM, 114 μM ATP
T1 construct: purchased ThermoFisher PR9210B
Outline: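 Aurora B (10 nM) was pre-incubated with compound for 15 min, then reacted with 114 μM ATP and 4.7 μM MBP for 2 h at RT in 50 mM HEPES pH 7.5, 10 mM MgCl2, 1 mM DTT. ADP was read by ADP-Glo luminescence, and IC50 values came from four-parameter fits of 11-point, 3-fold titrations in duplicate.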

CHP134 = CHP134 CellTiter-Glo (CTG) Assay; type: cell-based; conditions: Homo sapiens, CHP-134, 120 h; viable cells by CellTiter-Glo after 5 days
Outline: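 CHP134 cells were seeded at 200 cells/well for 16 h, then treated in quadruplicate with nine-point 1:3 serial dilutions at 37 °C, 5% CO2. Viable cells were read by CellTiter-Glo luminescence after 5 days, and IC50 values were derived from the dose-response curves.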

T1 sequence (Q96GD4 whole entry): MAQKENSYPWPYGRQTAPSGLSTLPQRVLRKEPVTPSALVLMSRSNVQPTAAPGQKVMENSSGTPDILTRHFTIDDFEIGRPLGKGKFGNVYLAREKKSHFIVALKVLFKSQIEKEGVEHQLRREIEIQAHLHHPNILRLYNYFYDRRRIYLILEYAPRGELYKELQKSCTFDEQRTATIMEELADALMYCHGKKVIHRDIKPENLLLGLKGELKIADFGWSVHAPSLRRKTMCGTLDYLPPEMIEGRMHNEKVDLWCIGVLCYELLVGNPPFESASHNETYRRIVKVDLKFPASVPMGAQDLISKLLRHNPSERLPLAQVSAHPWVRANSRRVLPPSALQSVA

| SMILES | [Aurora B IC50 (nM)]/[PLK4 IC50 (nM)] [1] | IC50 (CHP134) [nM] |
| --- | --- | --- |
| COc1ccc2c(c1)[C@]1(C[C@H]1c1ccc3c(Nc4nc(-c5cnco5)ncc4OC)n[nH]c3c1)C(=O)N2 [Example 40, (1R,2S)-5′-methoxy-2-(3-{[5-methoxy-2-(1,3-oxazol-5-yl)pyrimidin-4-yl]amino}-1H-indazol-6-yl)spiro[cyclopropane-1,3′-indol]-2′(1′H)-one] | 410.7334 | 237 |
| COc1ccc2c(c1)[C@]1(C[C@H]1c1ccc3c(Nc4cc(-c5nnn(C)n5)ccc4OC)n[nH]c3c1)C(=O)N2 [Example 21, (1R,2S)-5′-methoxy-2-{3-[2-methoxy-5-(2-methyl-2H-tetrazol-5-yl)anilino]-1H-indazol-6-yl}spiro[cyclopropane-1,3′-indol]-2′(1′H)-one] | 990 | 400 |
| COc1ccc2c(c1)[C@]1(C[C@H]1c1ccc3c(Nc4cc(-c5nccs5)ccc4OC)n[nH]c3c1)C(=O)N2 [Example 14, (1R,2S)-5′-methoxy-2-{3-[2-methoxy-5-(1,3-thiazol-2-yl)anilino]-1H-indazol-6-yl}spiro[cyclopropane-1,3′-indol]-2′(1′H)-one] | 897.1830 | 88.7 |
